In patent US6395786B1, “Sleep inducing agent” (Taisho Pharmaceutical Co., Ltd., priority 1998, dated 2002) one finds sleep action observed data, which are given here for 1 compound.

The structures appear in SMILES notation.

The subject of this experiment is male rhesus monkeys. Put plainly: Sleep-inducing test by cisternal administration (videotape sleep score). The note with it: 10 μg/monkey, 45 minutes after the administration, FIG. 2. Format: in vivo. As for the experimental part: [Sleep-inducing Test by Cisternal Administration]
Three male rhesus monkeys weighing 3.6-4.4 kg were individually placed in cages, and the behaviors of the animals were recorded by videotape for an hour before administration of the drug and for 5 hours after administration of the drug. Compound 32 and prostaglandin D2 methyl ester (PGD2) were each dissolved in saline solution and sterilized through a Millipore filter. The drugs were infused cisternally to the monkeys anesthetized with isohalothane inhalation. The doses were 1 μg and 10 μg/0.1 ml/monkey. The same doses of the vehicle were infused cisternally to give a control group. The test was carried out according to the following test schedule.
Week 1: Group treated with vehicle
Week 2: Group treated with 1 μg of Compound 32/monkey
Week 3: Group treated with 10 μg of Compound 32/monkey
Week 4: Group treated with 10 μg of PGD2/monkey
To determine the sleep, the period for which the monkey closed both eyes was measured at intervals of 15 minutes by playing back the recorded videotape, and the results were scored according to the following scales.

Turning to `CCCCC[C@H](O)/C=C/[C@H]1C(=O)C[C@H](O)[C@@H]1C/C=C\CCCC(=O)OC` [prostaglandin D2 methyl ester], the sleep action observed entry was “transient sleep action”.
